Like-named read-outs stand apart in the source and are kept apart here.
Tests used:
[1] = molecular target: T1, sigma-2 receptor (Rattus norvegicus, UniProt Q5U3Y7); assay: Sigma-2 receptor competitive binding assay ([3H]DTG, rat liver membranes, (+)-pentazocine mask)
T1 construct: from tissue; host or cells: rat liver (male Sprague-Dawley rats)
T1 sequence (Q5U3Y7 1-176): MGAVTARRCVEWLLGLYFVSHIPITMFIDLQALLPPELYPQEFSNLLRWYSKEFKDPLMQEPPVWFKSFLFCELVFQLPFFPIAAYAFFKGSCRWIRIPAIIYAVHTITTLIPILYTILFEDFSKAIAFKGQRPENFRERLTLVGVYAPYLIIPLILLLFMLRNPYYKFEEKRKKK
Method: (§1) Animal experimental protocols were approved by the Committee on Animal Experimentation of Kanazawa University. Experiments with animals were conducted in accordance with the Guidelines for the Care and Use of Laboratory Animals of Kanazawa University. The animals were housed with free access to food and water at 23°C with a 12-h alternating light/dark schedule. The rat brain and liver membranes for binding experiments were prepared from rat brains without cerebellum and rat liver in male Sprague–Dawley rats (200 g, Japan SLC, Inc., Hamamatsu, Japan), respectively, using a method described previously.
A sigma-2 receptor binding assay was performed using the following method. […] The incubated samples were treated in the same manner as described for the sigma-1 receptor binding assays.

[2] = molecular target: T2, sigma-1 receptor (Rattus norvegicus, UniProt Q9R0C9); assay: Sigma-1 receptor competitive binding assay ((+)-[3H]pentazocine, rat cerebral membranes)
T2 construct: from tissue; host or cells: rat brain without cerebellum (male Sprague-Dawley rats)
Method: as §1
A sigma-1 receptor binding assay was performed using the following method. […] The incubated samples were quickly diluted with 5 mL of ice-cold Tris–HCl (pH 7.8) buffer followed by rapid filtration through Whatman Grade GF/B glass fiber filters (GE Healthcare UK Ltd., Amersham, UK) presoaked in 0.5% polyethylenimine using a cell harvester (Brandel, Gaithersburg, MD, USA). Filters were washed three times with 5 mL of ice-cold buffer. […] Radioactivity retained on the filters was measured with a liquid scintillation counter (LSC-5100; Aloka, Tokyo, Japan).

[3] = Biodistribution in DU-145 tumor-bearing mice; format: in vivo; conditions: i.v., mean (SD)
Method: (+)-^131I]pIV was prepared using a method described previously. To produce tumors, approximately 5 × 10^6 of the prepared DU-145 cells was injected subcutaneously into the right dorsum of 4-week-old male BALB/c nude mice (15 to 19 g, Japan SLC, Inc.). Biodistribution experiments were performed at approximately 14- to 21-day post-inoculation, i.e., when tumors reached a palpable size. Groups of four mice were intravenously administered with 100 μL of a mixed solution of (+)-^125I]IV-OH (37 kBq) and (+)-^131I]pIV (37 kBq). At 10-min, 1-, 3-, and 24-h post-injections, the mice were killed. Tissues of interest were removed and weighed, and radioactivity counts were determined with an auto well gamma counter and corrected for background radiation. A window from 16 to 71 keV was used for measuring ^125I and one from 300 to 433 keV for ^131I. The crossover of ^125I activity into the ^131I channel was negligible. Correlation factors to eliminate any crossover of ^131I activity into ^125I were determined by measuring the ^131I standard in both windows.

[4] = test system: sigma receptors; assay: Blocking studies with excess sigma ligand in DU-145 tumor-bearing mice; format: in vivo; conditions: 10 μmol/kg i.v. co-injection, 1-h post-injection
Method: At 1-h post-injection, the mice were killed, and biodistribution experiments were conducted as described above.

[5] = rat liver membranes, 5-nM [3H]DTG, 1-μM (+)-pentazocine mask, Ki from IC50, means (SEM) of three or four experiments
[6] = rat cerebral membranes, 5-nM (+)-[3H]pentazocine, Ki from IC50, means (SEM) of three or four experiments

T2 sequence (Q9R0C9 whole entry): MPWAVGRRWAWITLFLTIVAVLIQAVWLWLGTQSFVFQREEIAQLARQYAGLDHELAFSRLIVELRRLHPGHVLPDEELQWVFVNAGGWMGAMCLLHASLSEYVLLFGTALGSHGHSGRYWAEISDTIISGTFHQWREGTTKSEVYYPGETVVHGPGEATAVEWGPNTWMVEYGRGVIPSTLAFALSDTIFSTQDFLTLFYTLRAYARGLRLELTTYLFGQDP

Q: With `Oc1ccc(C2CCN(C3CCCC[C@H]3O)CC2)cc1I` (single isomer, unassigned; (+)) [(+)-IV-OH, (+)-4-[1-(2-hydroxycyclohexyl)piperidine-4-yl]-2-iodophenol] as the compound, how does the Ki [1] read?
A: Its Ki is 147 nM.

Q: And the Ki [2]?
A: Its Ki is 22.8 nM.

Q: And the “selectivity for sigma-1 subtype over sigma-2” value ([2]; in vitro binding assay)?
A: The value was “approximately 6.4 fold”.

Q: What does the source list for `Oc1ccc(C2CCN(C3CCCCC3O)CC2)cc1` (single isomer, unassigned; (+)) [(+)-Ves-OH]?
A: Ki [1, 5]: 97.2 nM; Ki [2, 6]: 179 nM

Q: Which “Biodistribution of radioactivity, Blood” value ([3]; 10 min post-injection) does the source give for `OC1CCCCC1N1CCC(c2ccc([131I])cc2)CC1` (single isomer, unassigned; (+)) [(+)-[^131I]pIV, reference compound] here?
A: The value was 0.45 (0.03) percent injected dose per gram tissue.

Q: And the “Biodistribution of radioactivity, Blood” value ([3]; 1 h post-injection)?
A: Its value is 0.28 (0.02) percent injected dose per gram tissue.

Q: What about the “Biodistribution of radioactivity, Blood” value ([3]; 3 h post-injection) of the same compound?
A: The value was 0.17 (0.01) percent injected dose per gram tissue.

Q: And the “Biodistribution of radioactivity, Brain” value ([3]; 10 min post-injection)?
A: The value was 6.02 (0.74) percent injected dose per gram tissue.

Q: What about the “Biodistribution of radioactivity, Brain” value ([3]; 1 h post-injection) of the same compound?
A: Its value is 6.47 (0.73) percent injected dose per gram tissue.

Q: And the “Biodistribution of radioactivity, Brain” value ([3]; 3 h post-injection)?
A: Its value is 4.12 (0.30) percent injected dose per gram tissue.

Q: What about the “Biodistribution of radioactivity, Brain” value ([3]; 24 h post-injection) of the same compound?
A: Its value is 2.22 (0.10) percent injected dose per gram tissue.

Q: And the “Biodistribution of radioactivity, Heart” value ([3]; 10 min post-injection)?
A: The value was 8.66 (0.81) percent injected dose per gram tissue.

Q: What about the “Biodistribution of radioactivity, Heart” value ([3]; 1 h post-injection) of the same compound?
A: Its value is 5.55 (0.70) percent injected dose per gram tissue.

Q: And the “Biodistribution of radioactivity, Heart” value ([3]; 3 h post-injection)?
A: The value was 2.11 (0.37) percent injected dose per gram tissue.

Q: What about the “Biodistribution of radioactivity, Heart” value ([3]; 24 h post-injection) of the same compound?
A: The value was 0.96 (0.07) percent injected dose per gram tissue.

Q: And the “Biodistribution of radioactivity, Intestine” value (shortened to “Biodistribution … Intestine”) ([3]; 10 min post-injection)?
A: The value was 4.31 (0.78) percent injected dose per gram tissue.

Q: And the “Biodistribution … Intestine” value ([3]; 1 h post-injection)?
A: Its value is 5.14 (0.12) percent injected dose per gram tissue.

Q: What about the “Biodistribution … Intestine” value ([3]; 3 h post-injection) of the same compound?
A: The value was 3.20 (0.13) percent injected dose per gram tissue.

Q: And the “Biodistribution … Intestine” value ([3]; 24 h post-injection)?
A: The value was 2.59 (0.24) percent injected dose per gram tissue.

Q: And the “Biodistribution of radioactivity, Kidney” value ([3]; 10 min post-injection)?
A: The value was 18.47 (1.59) percent injected dose per gram tissue.

Q: And the “Biodistribution of radioactivity, Kidney” value ([3]; 1 h post-injection)?
A: The value was 11.72 (1.90) percent injected dose per gram tissue.

Q: What about the “Biodistribution of radioactivity, Kidney” value ([3]; 3 h post-injection) of the same compound?
A: The value was 7.37 (0.89) percent injected dose per gram tissue.

Q: And the “Biodistribution of radioactivity, Kidney” value ([3]; 24 h post-injection)?
A: The value was 6.15 (0.30) percent injected dose per gram tissue.

Q: And the “Biodistribution of radioactivity, Liver” value ([3]; 10 min post-injection)?
A: Its value is 9.83 (0.39) percent injected dose per gram tissue.

Q: And the “Biodistribution of radioactivity, Liver” value ([3]; 1 h post-injection)?
A: The value was 13.31 (1.25) percent injected dose per gram tissue.

Q: What about the “Biodistribution of radioactivity, Liver” value ([3]; 3 h post-injection) of the same compound?
A: Its value is 13.05 (0.46) percent injected dose per gram tissue.

Q: What about the “Biodistribution of radioactivity, Liver” value ([3]; 24 h post-injection) of the same compound?
A: The value was 10.28 (0.59) percent injected dose per gram tissue.

Q: And the “Biodistribution of radioactivity, Lung” value ([3]; 10 min post-injection)?
A: The value was 26.10 (3.39) percent injected dose per gram tissue.

Q: What about the “Biodistribution of radioactivity, Lung” value ([3]; 1 h post-injection) of the same compound?
A: The value was 13.13 (3.28) percent injected dose per gram tissue.

Q: What about the “Biodistribution of radioactivity, Lung” value ([3]; 3 h post-injection) of the same compound?
A: Its value is 6.59 (0.56) percent injected dose per gram tissue.

Q: What about the “Biodistribution of radioactivity, Lung” value ([3]; 24 h post-injection) of the same compound?
A: Its value is 3.01 (0.46) percent injected dose per gram tissue.

Q: What about the “Biodistribution of radioactivity, Muscle” value ([3]; 10 min post-injection) of the same compound?
A: Its value is 2.03 (0.53) percent injected dose per gram tissue.

Q: What about the “Biodistribution of radioactivity, Muscle” value ([3]; 1 h post-injection) of the same compound?
A: The value was 1.62 (0.22) percent injected dose per gram tissue.

Q: What about the “Biodistribution of radioactivity, Muscle” value ([3]; 3 h post-injection) of the same compound?
A: The value was 0.72 (0.29) percent injected dose per gram tissue.

Q: And the “Biodistribution of radioactivity, Muscle” value ([3]; 24 h post-injection)?
A: The value was 0.42 (0.03) percent injected dose per gram tissue.

Q: And the “Biodistribution of radioactivity, Pancreas” value (“Biodistribution … Pancreas” below) ([3]; 10 min post-injection)?
A: Its value is 16.58 (1.82) percent injected dose per gram tissue.

Q: What about the “Biodistribution … Pancreas” value ([3]; 1 h post-injection) of the same compound?
A: Its value is 21.94 (2.50) percent injected dose per gram tissue.

Q: What about the “Biodistribution … Pancreas” value ([3]; 3 h post-injection) of the same compound?
A: The value was 27.35 (0.24) percent injected dose per gram tissue.

Q: And the “Biodistribution … Pancreas” value ([3]; 24 h post-injection)?
A: The value was 27.36 (0.70) percent injected dose per gram tissue.

Q: What about the “Biodistribution of radioactivity, Spleen” value ([3]; 10 min post-injection) of the same compound?
A: The value was 8.12 (1.09) percent injected dose per gram tissue.

Q: And the “Biodistribution of radioactivity, Spleen” value ([3]; 1 h post-injection)?
A: The value was 8.99 (1.00) percent injected dose per gram tissue.

Q: And the “Biodistribution of radioactivity, Spleen” value ([3]; 3 h post-injection)?
A: Its value is 4.04 (0.30) percent injected dose per gram tissue.

Q: And the “Biodistribution of radioactivity, Spleen” value ([3]; 24 h post-injection)?
A: The value was 2.52 (0.23) percent injected dose per gram tissue.

Q: What about the “Biodistribution of radioactivity, Stomach” value (“Biodistribution … Stomach” for short) ([3]; 10 min post-injection) of the same compound?
A: The value was 1.07 (0.32) percent injected dose.

Q: What about the “Biodistribution … Stomach” value ([3]; 1 h post-injection) of the same compound?
A: The value was 0.73 (0.26) percent injected dose.

Q: And the “Biodistribution … Stomach” value ([3]; 3 h post-injection)?
A: Its value is 0.62 (0.19) percent injected dose.

Q: What about the “Biodistribution … Stomach” value ([3]; 24 h post-injection) of the same compound?
A: The value was 0.49 (0.06) percent injected dose.

Q: And the “Biodistribution of radioactivity, Tumor” value ([3]; 10 min post-injection)?
A: The value was 7.20 (0.40) percent injected dose per gram tissue.

Q: And the “Biodistribution of radioactivity, Tumor” value ([3]; 1 h post-injection)?
A: The value was 5.79 (0.37) percent injected dose per gram tissue.

Q: What about the “Biodistribution of radioactivity, Tumor” value ([3]; 3 h post-injection) of the same compound?
A: Its value is 6.46 (3.42) percent injected dose per gram tissue.

Q: And the “Biodistribution of radioactivity, Tumor” value ([3]; 24 h post-injection)?
A: Its value is 6.81 (2.60) percent injected dose per gram tissue.

Q: With `Oc1ccc(C2CCN(C3CCCCC3O)CC2)cc1I` (single isomer, unassigned; (-)) [(−)-IV-OH, (−)-enantiomer of 4-[1-(2-hydroxycyclohexyl)piperidine-4-yl]-2-iodophenol] as the compound, how does the Ki [1, 5] read?
A: The Ki was 166 nM.

Q: And the Ki [2, 6]?
A: The Ki was 45.5 nM.

Q: Which “effect of co-injected ligand on brain to blood uptake ratio of (+)-[^125I]IV-OH” value [4] does the source give for `COc1ccc(CCN2CCN(CCCc3ccccc3)CC2)cc1OC` [SA4503] here?
A: Its value is “significant decrease”.

Q: And the “effect of co-injected ligand on liver uptake of (+)-[^125I]IV-OH” value [4]?
A: Its value is “did not inhibit”.

Q: What about the “effect of co-injected ligand on pancreas to blood uptake ratio of (+)-[^125I]IV-OH” value [4] of the same compound?
A: Its value is “significant decrease”.

Q: What about the “effect of co-injected ligand on tumor to blood uptake ratio of (+)-[^125I]IV-OH” value [4] of the same compound?
A: Its value is “significant decrease”.

Q: For (+)-Vesamicol [reference compound], which Ki [1, 5] is on record?
A: Its Ki is 159 nM.

Reference: article PMC3524758, “Development and evaluation of a novel radioiodinated vesamicol analog as a sigma receptor imaging agent” (EJNMMI Research, 2012)
